Earlier results on one substance are cited in US8765803B1, “Rab7 GTPase inhibitors and related methods of treatment” (STC.UNM, priority 2011, dated 2014).

In general, Kd refers to the equilibrium constant for the complex coming apart.

This data set concerns the target Rab7 wt. Particulars: previously determined (ref 33); read-out: Equilibrium dissociation constant Kd for wild-type Rab7; cited from earlier work.

Consider “BODIPY FL GTP 2′-(or 3′)-O—[N-(2-aminoethyl)urethane] [BODIPY-GTP]”, for which the Kd was 100 nM.
